The nature of the data set: physchem. The note with it: thermodynamic from solid. As for the experimental part: Each polycarboxylic acid was added to the water or acetic acid solution while mixing and kept at the appropriate temperature until the solution became supersaturated as visually determined at least 20 minutes after addition of the polycarboxylic acid.

As a reminder, the solubility is how much of the substance goes into solution per volume. Consider `O=C(O)CCCCCCCCCCC(=O)O` [DDDA, dodecanedioic acid], for which the solubility is, setting by setting: (20 °C, organic solvent or mixture) less than 200 µg/mL; (23 °C, water) less than 30 µg/mL; (70 °C, organic solvent or mixture) more than 100000 µg/mL; (70 °C, water) less than 120 µg/mL; (water) less than 1000 µg/mL.

The values are drawn from patent US9517996B2, “Purification of polycarboxylic acids” (Verdezyne, Inc., priority 2014, dated 2016).
